The source of these data is patent US12024715B2, “Compositions and methods for improved T cells” (Temple University-Of The Commonwealth System of Higher …, priority 2017, dated 2024).

For assay [1], the system named is Id3, Id2, Eomes and Prdm1. Briefly: Real-time RT-PCR analysis of Ezh2-targeted genes in cultured Pmel-1 cells. The conditions noted are these: WT Pmel-1 cells, anti-CD3/CD28 Ab+IL-2, inhibitor treatment for 7 days. The format is cell-based, mouse. The protocol: Splenic and LN CD44loCD8+ TN cells were prepared as previously described (Zhang et al., 2002, J Immunol, 169:7111-7118; Zhang et al., 2005, Nat Med, 11:1299-1305). The purity was usually 90-95%. CD8+ T cell cultures were set up as previously described (He et al., 2013, Blood, 122:4119-4128; Tong et al., 2014, J Immunol, 192:5012-5022). In brief, CD44loCD8+ naive T cells (were cultured in the presence of anti-CD3 (2 μg/ml) and anti-CD28 (2.0 μg/ml) Abs together with recombinant human IL-2 (10 ng/ml; R&D Systems). In vivo sorted T cells and cultured T cells were restimulated with anti-CD3 Ab (1 μg/ml; BioLegend) or human gp100 (10^−6 M) for 5 hours before intracellular staining. Bone marrow-derived dendritic cells (DCs) were generated as previously described (Zhang et al., 2005, Nat Med, 11:1299-1305). For TAT-Cre experiments, 10^6 purified CD8^+ T cells or splenocytes were incubated in 100 μL serum-free RPMI containing 90 to 100 μg/mL TAT-Cre fusion protein for 16 hours at 37° C. After extensive washing, treated cells were kept in vitro culture for another 5 days.
The MigR1 retroviral vector system was described previously (Tong et al., 2014, J Immunol, 192:5012-5022; Pear et al., 1998, Blood, 92:3780-3792). Ezh2, Ezh2 mutants, and Id3 cDNA was cloned into Mig-R1 (GFP) vector. For retroviral infection, CD8+ T cells were prestimulated with anti-CD3/CD28 Ab for 24 hours, and then the retrovirus supernatant was added in the presence of 8 μg/ml polybrene (Sigma). Cells were spinoculated at 3000 rpm, 32° C. for 3 hours. The same retroviral infection procedure was repeated 24 hours later (Tong et al., 2014, J Immunol, 192:5012-5022).
RNA was isolated with an RNeasy Mini kit (Qiagen) and cDNA was generated by reverse transcription (Applied Biosystems). Real-time RT-PCR was performed with a SYBR green PCR mix (ABI Biosystems) in the Realplex Eppendorf Real-time PCR instrument (Eppendorf AG). Gene expression levels were calculated relative to the 18s gene. Data were collected and quantitatively analyzed on a Realplex sequence detection system (Eppendorf AG), and Applied Biosystems StepOne Plus Real-time PCR systems (Applied Biosystems).
(In general: Quantitative PCR measures a nucleic acid by following its amplification.)

For another assay, the system named is B16 melanoma. The assay is described as follows: Adoptive transfer of Pmel-1 cells into B6 mice with pre-established B16 melanoma, tumor size over time. The conditions noted are these: Pmel-1 cells treated during ex vivo culture, transferred into B16 melanoma-bearing B6 mice. Format: in vivo, mouse. The protocol: Pmel-1 T cells (1×10^4 to 1×10^6) were transferred into sublethally irradiated B6 mice (5.0 Gy). IL-2 (100,000 IU) was administered intraperitoneally twice a day, and BM-derived DCs which have been pulsed with gp100 (10 μg) were transferred via tail vein, for constitutively three days after adoptive transfer. C57BL/6 mice were injected subcutaneously with 5×10^5 B16 melanoma cells. In some experiments, Ezh2^fl/fl mice were intravenously received VVA-gp100 or VVA-OVA.
The Abs used for flow cytometric analyses were purchased from eBioscience, BioLegend, or BD Biosciences. Flow cytometric analyses were performed with FACS LSRII (BD Biosciences) as described (Zhang et al., 2005, Nat Med, 11:1299-1305; Zhang et al., 2002, J Immunol, 169:7111-7118). B16 mouse melanoma cell line was from American Type Culture Collection.

Assay [2] concerns promoter regions of Id3, Id2, Eomes and Prdm1 loci. The assay is described as follows: ChIP analysis of Ezh2 and H3K27me3 deposition in cultured Pmel-1 cells. Format: cell-based, mouse. The conditions noted are these: Akt inhibition. On the procedure: A Millipore ChIP kit and Diagenode ChIP kit was used for ChIP assay as described by the manufacturer. DNA-protein complexes were crosslinked with formaldehyde at a final concentration of 1%. Sonicated extracts were precleared and incubated with Abs specific to Ezh2, H3K27me3, or nonspecific anti-IgG. The immunoprecipitated DNA was quantified by real-time quantitative PCR.

The next assay relates to pEzh2S21 and H3K27me3. The assay is described as follows: Immunoblot analysis of TCR-activated Pmel-1 CD8+ T cells. Format: cell-based, mouse. The conditions noted are these: proliferating Pmel-1 CD8+ T cells stimulated in vitro for 7 days, with or without MK2206. (In western blotting, separated proteins are transferred to a membrane and probed.)

For the molecule `NC1(c2ccc(-c3nc4ccn5c(=O)[nH]nc5c4cc3-c3ccccc3)cc2)CCC1` [MK2206], in assay [1], the Eomes expression entry was “reducing”, the Id2 expression result is reported as “reducing”, the Id3 expression entry is given as “upregulated” and the Prdm1 expression result is given as “reducing”. The “anti-tumor activity (tumor growth)” value in the assay with B16 melanoma is given as “greater anti-tumor activity than untreated Pmel-1 cells, but was less potent than Ezh2S21A-transduced Pmel-1 cells”. In assay [2], the “amount of Ezh2 at the promoter regions of Id3, Id2, Eomes and Prdm1 loci” value is reported as “significantly increased”; the “amount of H3K27me3 at the promoter regions of Id3, Id2, Eomes and Prdm1 loci” value is “significantly increased”. Further, in the assay on pEzh2S21 and H3K27me3, the “H3K27me3 (immunoblot)” value was “increase” and the “pEzh2S21 (immunoblot)” value was “marked decrease”.

`Oc1cccc(-c2nc(N3CCOCC3)c3oc4ncccc4c3n2)c1` [PI103]: in assay [1], the Eomes expression entry is “reducing”, the Id2 expression result was “reducing”, the Id3 expression result was “upregulated” and the Prdm1 expression entry was “reducing”.
